Measurements reported in the NIST ThermoML archive (doi:10.1021/je5001523).
Numbers after ± are expanded uncertainties.

Experiment: mn = molality of the nth substance listed, in mol/kg
Settings: 101 kPa, Liquid; for viscosity: Capillary tube (Ostwald / Ubbelohde) method

[Cl-].[Li+] [lithium chloride] + O
Settings | mass density, 288.15 K [kg/m3] | mass density, 298.15 K [kg/m3] | mass density, 308.15 K [kg/m3] | mass density, 318.15 K [kg/m3] | viscosity, 288.15 K [mPa·s] | viscosity, 298.15 K [mPa·s] | viscosity, 308.15 K [mPa·s] | viscosity, 318.15 K [mPa·s]
m1 = 0.5 | 1012.05 ± 0.43 | 1009.46 ± 0.42 | 1006.13 ± 0.4 | 1002.07 ± 0.38 | 1.212 ± 0.008 | 0.94 ± 0.007 | 0.76 ± 0.006 | 0.629 ± 0.006
m1 = 1 | 1023.76 ± 0.48 | 1020.94 ± 0.47 | – | 1012.4 ± 0.43 | 1.288 ± 0.008 | 1.002 ± 0.007 | 0.802 ± 0.006 | 0.661 ± 0.006
m1 = 2 | 1045.1 ± 0.59 | 1041.17 ± 0.57 | 1036.24 ± 0.54 | 1031.32 ± 0.52 | 1.444 ± 0.009 | 1.112 ± 0.007 | 0.882 ± 0.006 | 0.724 ± 0.006
m1 = 3 | 1062.67 ± 0.67 | 1057.69 ± 0.65 | 1051.58 ± 0.62 | 1047.47 ± 0.6 | 1.586 ± 0.009 | 1.229 ± 0.008 | 0.962 ± 0.007 | 0.785 ± 0.006
